# Experimental data published in patent EP2403490B1, “AN IMPROVED DRY POWDER DRUG DELIVERY SYSTEM” (MannKind Corporation, priority 2009, dated 2010).
# Experiments:
# Format in all cases: physicochemical
# [1] = Geometric particle size of emitted formulations by VMGD, laser diffraction (Example 6); conditions: 56 % trans
# Text: Laser diffraction of dry powder formulations emitted from dry powder inhalers is a common methodology employed to characterize the level of de-agglomeration subjected to a powder. The methodology indicates a measure of geometric size rather than aerodynamic size as occurring in industry standard impaction methodologies. Typically, the geometric size of the emitted powder includes a volumetric distribution characterized by the median particle size, VMGD. Importantly, geometric sizes of the emitted particles are discerned with heightened resolution as compared to the aerodynamic sizes provided by impaction methods. Smaller sizes are preferred and result in greater likelihood of individual particles being delivered to the pulmonary tract. Thus, differences in inhaler de-agglomeration and ultimate performance can be easier to resolve with diffraction. In these experiments, an inhaler as specified in Example 3 and a predicate inhaler are tested with laser diffraction at pressures analogous to actual patient inspiratory capacities to determine the effectiveness of the inhalation system to de-agglomerate powder formulations. […] Reported in Table 5 are a VMGD and an efficiency of the container emptying during the testing. […]
# [2] = Powder flowability (Hausner ratio, compressibility index, angle of repose, critical orifice testing)
# Text: The compressibility index (Cl) can be calculated from the Hausner ratio (HR) as C1 = 100 × (1−(1/HR)). [formula]
# FDKP microparticles either unmodified or containing a drug, for example insulin, constitute highly cohesive powders.
# [3] = In vitro performance DPI 2 vs MEDTONE delivery system, laser diffraction and emitted mass (Example 7); conditions: fill weight 10 mg, 4 kPa
# Text: This system includes dry powder formulations, pre-metered into single-use cartridges and inserted into a high resistance, breath-powered, re-usable MEDTONE(R) inhaler. […] In vitro powder performance for these systems was compared for various parameter of inhaler performance. For DPI 2 a single discharge per cartridge was used as compared to two discharges per cartridge in the MEDTONE(R) system.
# Particle sizing by laser diffraction and quantification of emitted mass as described above were used in these experiments. A laser diffraction instrument (Sympatec HELOS) was adapted with a novel pressurized inhaler chamber to facilitate analysis of powder plumes. MTDS cartridges were discharged twice per determination versus once with DPI 2.
# [4] = DPI 2, single discharge, 15 cartridges
# [5] = MEDTONE® (MTDS), two discharges, 30 cartridges
smiles,measurement,setting,value
"O=C(O)/C=C/C(=O)NCCCCC1NC(=O)C(CCCCNC(=O)/C=C/C(=O)O)NC1=O (stereo not shown) [FDKP, bis-3,6-(N-fumaryl-4-aminobutyl)-2,5-diketopiperazine]",VMGD,"[1]; DPI 2, SSA 55 m2/g, pressure drop 4 kPa",6.800 micron
same,VMGD,"[1]; MEDTONE®, SSA 55, 4 kPa",21.200 micron
same,angle of repose,[2],40 °
same,Ave. Geometric SD,[3]; [4],3.79 µm
same,Ave. VMGD,[3]; [4],6.84 µm
same,Ave. Geometric SD,[3]; [5],2.94 µm
same,Ave. VMGD,[3]; [5],21.21 µm
